Experimental data taken from patent US9907852B2, “Anticancer agent and side-effect-alleviating agent” (National University Corporation University of Toyama, priority 2014, dated 2018).

What was measured:
[1] = tested on: Human pancreatic cancer cells Miapaca-2; experiment: Tumor weight in mice transplanted subcutaneously with Miapaca-2 (Test Example 3); type: in vivo; settings: after 4 weeks; extract 250 mg/kg oral 5 times a week, gemcitabine 150 mg/kg i.p. twice a week
Method: Human pancreatic cancer cells Miapaca-2 (ATCC CRL 1420) (5×10^6 cells/200 μl) were transplanted subcutaneously under the armpit of BALB/cAJcl nu/nu mice (CLEA Japan, Inc.) . After feeding for about 2-3 weeks, those of which cancer grew to about 100 mm^3 were selected and employed as the subject mice to be treated. The subject mice of treatment were divided into 4 groups, that is, (a) an untreated group, (b) a group administered gemcitabine, (c) a group administered a Burdock Fruit extract, and (d) a group administered in combination with a Burdock Fruit extract and gemcitabine (combined administration group), and the treatment was continued for 4 weeks. […] After termination of the therapeutic test, the tumor weight was measured in the respective groups.

[2] = tested on: Human pancreatic cancer cells Miapaca-2; experiment: Proportion of the cancer stem cells in tumor by flow cytometry, Miapaca-2 (Test Example 3); type: in vivo, mice; settings: after the therapeutic test (4 weeks)
Method: Human pancreatic cancer cells Miapaca-2 (ATCC CRL 1420) (5×10^6 cells/200 μl) were transplanted subcutaneously under the armpit of BALB/cAJcl nu/nu mice (CLEA Japan, Inc.) . After feeding for about 2-3 weeks, those of which cancer grew to about 100 mm^3 were selected and employed as the subject mice to be treated.
The subject mice of treatment were divided into 4 groups, that is, (a) an untreated group, (b) a group administered gemcitabine, (c) a group administered a Burdock Fruit extract, and (d) a group administered in combination with a Burdock Fruit extract and gemcitabine (combined administration group), and the treatment was continued for 4 weeks. The Burdock Fruit extract, 250 mg/kg prepared in Example 1 (25 mg/kg or more as arctigenin), was orally administered everyday (for 5 times a week). As gemcitabine, an intravenous drip preparation of gemcitabine (Eli Lilly and Co.) was used, and 150 mg/kg was intraperitoneally given twice a week.
The cancer cells were recovered from the tumor tissue after termination of the treatment test, and using the triple positive markers, CD24, CD44 and ESA (CD326) as well as the double positive markers, CD133 and CD44, and the proportion of CD44^+, CD24^+, CD326^+ cells (triple positive) and CD133^+, CD44^+ cells (double positive) was evaluated. In the evaluation, a FACS ARIA II flow cytometer (BD bioscience) was used.

[3] = Toxicity test by concomitant repeated-dose administration (Test Example 8); type: in vivo, mice; settings: after 7 weeks
Method: SIX SCR-ICR mice (female of 6 weeks of age) (SLC Co.) were used in each of 4 groups, that is, (a) untreated group, (b) gemcitabine administered group, (c) Burdock Fruit extract administered group, and (d) group of combined administration of Burdock Fruit extract and gemcitabine (combined administration group). In each group, each of the therapeutic agents was administered continuously for a period of 7 weeks.
Burdock Fruit extract, 250 mg/kg prepared in Example 1 (25 mg/kg as arctigenin) , was orally administered 5 times a week. As gemcitabine, an intravenous drip preparation of gemcitabine (Eli Lilly and Co.) was used, and 100 mg/kg was intraperitoneally administered once a week.
During the term of administration for about 7 weeks, measurement of body weight, observation of skin and oral state, as well as observation of feces were practiced every 5 days. As a result, there was recognized no symptom which reminded any side effect such as inflammation in skin and mucous membrane, depilation or diarrhea in all of the administered groups. In addition, generally there was no difference of significance in body weight which is an indicator of nausea, loss of appetite, side effect in digestive system, and the like.
After termination of administration, the mice were anesthetized deeply, subjected to thoracotomy and complete blood drawing from heart. In addition, kidney, liver, spleen and lung were recovered, the weight was measured.
In addition, a hemocytic and biochemical examination was carried out using the collected blood.

[4] = tested on: Human pancreatic cancer cell Suit 2; experiment: Uptake of gadolinium DTPA in tumor tissue by MRI, blood stream in tumor (Test Example 1); type: in vivo, mice; settings: after intravenous injection of gadolinium DTPA; after 4 weeks of treatment
Method: (§1) Human pancreatic cancer cell Suit 2 (1×10^6 cells) was transplanted subcutaneously to BALB/cAJc1-nu/nu mice (CLEA Japan, Inc.) . On 21th day after the transplantation, the transplanted mice were divided into 4 groups, that is, (a) an untreated group, (b) a group to which a Burdock Fruit extract was administered, (c) a group to which bevacizumab was administered, and (d) a group to which gemcitabine was administered, and the treatment was continued for 4 weeks. The Burdock Fruit extract of Example 1 was mixed into feed at a rate of 0.5% (w/w) and the resultant was given to mice. The ingestion of feed was 3 to 5 g a day for a mouse, from which the intake of arctigenin was calculated as […]. Bevacizumab, as Avastin 100 mg/4 ml for intravenous injection (Chugai Pharm. Co.) , was intraperitoneally injected at a dose of 5 mg/kg once a week. As gemcitabine, an intravenous drip preparation of gemcitabine (Eli Lilly and Co.) was intraperitoneally injected at a dose of 100 mg/kg twice a week.
After 4 weeks from the starting of treatment, the uptake of gadolinium DTPA in the mouse tumor tissue was evaluated in the respective groups. […] From this photograph the signal intensity of gadolinium DTPA in the tumor tissue was measured. […]

[5] = tested on: Human pancreatic cancer cell Suit 2; experiment: Tumor size in mice transplanted subcutaneously with Suit 2 (Test Example 1); type: in vivo; settings: after 4 weeks from the starting of treatment; extract 0.5% (w/w) in feed, bevacizumab 5 mg/kg i.p. once a week, gemcitabine 100 mg/kg i.p. twice a week
Method: as §1
The average tumor size after 4 weeks from the starting of treatment in the respective groups was as follows: (a) 228 mm^2 in the untreated group; (b) 189 mm^2 in the Burdock Fruit extract administered group; (c) 56 mm^2 in the bevacizumab administered group to which was; and (d) 68 mm^2 in the gemcitabine administered group.

[6] = tested on: Human pancreas cancer cells Miapaca-2 cells; experiment: Survival in orthotopic graft model of pancreas cancer (Test Example 4); type: in vivo, mice
Method: Human pancreas cancer cells Miapaca-2 cells were suspended in a highly concentrated Matrigel solution (BD bioscience) at 5×10^6 cells/50 μl. A female BALB/cAJcl-nu/nu mice (8 weeks of age) (CLEA Japan, Inc.) were subjected to laparotomy under anesthesia, the above-prepared cell suspension was poured into pancreatic tissue and solidified, followed by suture and closing.
The mice after transplantation were divided into 4 groups (7 mice in one group), that is, an untreated group (Non treat); a group to which 250 mg/kg of Burdock Fruit extract (Kracie Pharm., GBS-01) containing 10% of arctigenin was orally administered every day (GBS-01); a group which was intraperitoneally given 150 mg/kg of gemcitabine (Eli Lilly & Co.) twice a week (Gemcitabine); and a group of combined administration of them(Combination), and the treatment was continued until all of the mice died.
The survival rate was calculated according to the Kaplan-Mayer method by making a curve of survival rate and calculating the median of survival rate (MST) (GraphPad-PRISM 6.2, MDF Co.). The significant difference was evaluated by means of Logrank (Mantel-COX) and Gehan-Breslow-Wilcoxon test. The calculated results were shown on an upper graph of FIG. 5.

tumor tissue [7] = experiment: Survival period after 5 weeks of treatment (Test Example 2); type: in vivo, mice; settings: treatment terminated after 5 weeks, survival followed up
Method: For tumor tissue, a single administration of a Burdock Fruit extract, a single administration of bevacizumab and a combined administration of a Burdock Fruit extract and bevacizumab were performed over a period of 5 weeks. […] Thus, the suppression effect on ulcer generation in tumor was recognized in the Burdock Fruit extract-administered group and the concomitantly administered group compared with that in the untreated group and the bevacizumab-administered group. In the bevacizumab-administered group, the inhibitory effect for ulcer generation was recognized in comparison with the untreated group, though it was temporal. This effect is considered to be an inhibitory activity of bevacizumab for angiogenesis. On the other hand, when the combined administration of a Burdock Fruit extract in addition to bevacizumab, the inhibitory effect on ulcer generation was raised. This is considered that, in addition to the improved effect for blood stream in tumor by a single preparation of bevacizumab, the blood stream was further improved by combined administration of a Burdock Fruit extract which suppressed an occurrence of a hypoxia and undernutritional region and further suppressed angiogenesis. Thus, since the combined administration of arctigenin can markedly reduce a hypoxia and undernutritional region, it is expected to suppress the malignant transformation of cancer. […]

[8] = tested on: Human colorectal cancer cells LS174T; experiment: Proportion of cancer stem cells in tumor by flow cytometry, LS174T (Test Example 7); type: in vivo, mice; settings: after termination of the treatment test (4 weeks)
Method: (§2) On the 14th day, the transplanted mice were divided into 4 groups, that is, (a) an untreated group, (b) a bevacizumab-administered group, (c) a Gogoshi extract-administered group, and (d) a group of combined administration of a Burdock Fruit extract and bevacizumab (combined administration group), and the treatment was continued for 4 weeks. When a Burdock Fruit extract was administered, 250 mg/kg of Burdock Fruit extract (25 mg/kg as arctigenin) of Example 1 was orally administered 6 times a week. Bevacizumab, as Avastin for intravenous drip injection (100 mg/4 ml) (Chugai Pharm. Co.), was intraperitoneally injected at a dose of 5 mg/kg once a week.
The cancer cells were then recovered from the tumor tissue, and using the double positive markers, CD133 and CD44, the proportion of CD133^+, CD44^+ cells in tumor after termination of the treatment test was evaluated by means of a FACS ARIA II flow cytometer (BD bioscience).

[9] = tested on: Human colorectal cancer cells LS174T; experiment: Tumor weight in mice transplanted subcutaneously with LS174T (Test Example 7); type: in vivo; settings: after 4 weeks; extract 250 mg/kg oral 6 times a week, bevacizumab 5 mg/kg i.p. once a week
Method: as §2
After termination of the therapeutic test, the tumor weight was measured in the respective groups. As results, the tumor weight after termination of the therapeutic test was as follows: 2.51 g in the untreated group, 1.33 g in the bevacizumab administered group, 1.25 g in the Burdock Fruit extract administered group, and 0.68 g in the combined administration group. Accordingly, in any group including the bevacizumab administered group, the Burdock Fruit extract administered group and the combined administration group, the inhibition of increase of tumor weight was recognized compared with the untreated group. […]

tumor tissue [10] = experiment: Occurrence of ulcer in the tumor tissue (Test Example 2); type: in vivo; settings: rate of mice which generated ulcer in the tumor; administration over 5 weeks
Source text: In the course of the growth of tumor, nutrition and oxygen have to be supplied over the grown entire tumor tissue through the blood vessels. In most of tumor, however, it is considered that these are not supplied sufficiently because of immature angioplasty to cause a partial necrosis of tissue and an ulcerous portion occurs. In this situation, in order to inspect the effect of normalization of intra-tumor blood stream by the above described Burdock Fruit extract, the occurrence of ulcer in the tumor tissue after the respective treatments was observed.
For tumor tissue, a single administration of a Burdock Fruit extract, a single administration of bevacizumab and a combined administration of a Burdock Fruit extract and bevacizumab were performed over a period of 5 weeks. […] Thus, the suppression effect on ulcer generation in tumor was recognized in the Burdock Fruit extract-administered group and the concomitantly administered group compared with that in the untreated group and the bevacizumab-administered group. In the bevacizumab-administered group, the inhibitory effect for ulcer generation was recognized in comparison with the untreated group, though it was temporal. This effect is considered to be an inhibitory activity of bevacizumab for angiogenesis. […]

[11] = gemcitabine 100 mg/kg i.p. once a week

Compound | tumor weight [1] | ratio of CD133+, CD44+ cells (double positive) in tumor [2] | ratio of CD44+, CD24+, CD326+ cells (triple positive) in tumor ([2]; average of 4 samples) | hematocrit value (in words) [3] | hemoglobin value (in words) [3] | weight/body weight rate (%) of liver, lowering compared with the untreated group [3, 11] | weight/body weight rate (%) of spleen, lowering compared with the untreated group [3, 11] | number of erythrocytes compared with the untreated group ([3]; value as % of untreated) | number of leukocytes compared with the untreated group ([3]; value as % of untreated) | number of platelets compared with the untreated group ([3]; value as % of untreated) | ALT, rise compared to the untreated group ([3]; hepatopathy marker) | AST, rise compared to the untreated group ([3]; hepatopathy marker) | increase of signal intensity in the central part of tumor tissue (in words) [4] | average tumor size [5] | median of survival time (MST) ([6]; GBS-01 250 mg/kg oral every day, gemcitabine 150 mg/kg i.p. twice a week, until all mice died) | prolongation of MST ([6]; against the untreated group (65 days)) | 50% survival period (tumor tissue [7]) | proportion of CD133+, CD44+ cells (double positive) in tumor [8] | tumor weight [9] | duration until the generation of ulcer reached 50% (tumor tissue [10])
Nc1ccn([C@@H]2O[C@H](CO)[C@@H](O)C2(F)F)c(=O)n1 [gemcitabine] | 1.24 g | 3.5% | 1.6% | lowering | lowering | about 20% | about 20% | approximately 87% | approximately 50% | approximately 70% | 102% | 46% | no increase | 68 mm^2 | 86 days | 32.3% | – | – | – | –
bevacizumab | – | – | – | – | – | – | – | – | – | – | – | – | tendency of increasing | 56 mm^2 | – | – | 107 days | 0.552% | 1.33 g | 10 days
